{
  "source": "patent US20120245193A1",
  "about": "“PER[…] μ OPIOID ANTAGONISTS” (Alkermes, Inc., priority 2011, published 2012)",
  "key": {"Male Swiss-Webster mice": {"system": "Male Swiss-Webster mice", "test": "PGE2 test of gut motility (inhibition of morphine's blockade of PGE2-induced diarrhea)", "assay_type": "in vivo", "protocol": "A rodent model of gut motility model (Russell, et al., 1982; Eur. J. Pharm., 78: 255-61) was used to evaluate the bioavailability and efficacy of Compound-1 in […]. The PGE2 test of gut motility evaluates the inhibition of morphine's side effects. PGE2 (a prostaglandin) induces diarrhea in mice within 15 minutes of an intraperitoneal injection (0.1 mg/kg). Morphine (1 mg/kg, IP) blocks this effect. Peripherally-acting opioid antagonists inhibit morphine's blockade of PGE2-induced diarrhea. Male Swiss-Webster mice (n=10/group) were administered Compound-1 or a reference compound 15 minutes (IP or PO) prior to morphine and placed in a Plexiglas pie cage. PGE2 was administered 30 minutes after morphine. Observations of diarrhea were made 15 minutes after PGE2 administration. Duration of action was tested by adjusting the time between Compound-1 and morphine administration. FIGS. 2 and 3 show the effectiveness of reference compound methylnaltrexone (MNTX) and Compounds 1-4 to inhibit opioid-induced delay in gut motility by oral and IP administration.\n(NTX represents naltrexone)."}, "[1]": {"system": "patients diagnosed with opioid-induced bowel dysfunction (OBD)", "test": "Multicenter, multi-dose study in patients with opioid-induced bowel dysfunction", "assay_type": "in vivo, human", "protocol": "In this multicenter, multi-dose study, 87 patients diagnosed with opioid-induced bowel dysfunction (OBD) during treatment with opioids for chronic, non-cancer pain were randomized to receive escalating doses of Compound-1 (1-100 mg), or placebo with a pre-defined dose escalation schedule. […] (FIG. 8).\nThe mean change from baseline in CSBMs per week for patients receiving 100 mg Compound-1 was 3.6 versus 0.8 in the placebo group (p=0.006), or a net increase of 2.8 CSBMs over placebo."}},
  "data": [
    {"molecule": "C[N+]1(CC2CC2)CC[C@]23CC(=O)CC[C@@]2(O)[C@H]1Cc1ccc(C(N)=O)c(O)c13", "note": "(stereo partly drawn) [Compound-1]", "values": [
      {"measurement": "duration of action compared with MNTX", "setting": "Male Swiss-Webster mice; minimal effective PO dose of Compound-1 vs minimal effective IP dose of MNTX, FIG. 7", "result": "longer duration of action than MNTX"},
      {"measurement": "dose relative to methylnaltrexone at which morphine's effects are blocked", "setting": "Male Swiss-Webster mice; oral administration, FIG. 6", "result": 3, "unit": "fold lower"},
      {"measurement": "duration of blocking morphine's effects", "setting": "Male Swiss-Webster mice; oral administration, FIG. 6, compared with methylnaltrexone", "result": "up to 4 hours"},
      {"measurement": "change from baseline in number of average spontaneous bowel movements (SBMs) in comparison to placebo", "setting": "[1]; 30 mg dose", "result": "statistically significant increase"},
      {"measurement": "net increase of CSBMs over placebo", "setting": "[1]; 100 mg", "result": 2.8, "unit": "CSBMs"},
      {"measurement": "average number of complete spontaneous bowel movements (CSBMs) per week from baseline as compared to placebo", "setting": "[1]; 100 mg dose", "result": "clinically meaningful and statistically significant increase"},
      {"measurement": "change from baseline in number of average spontaneous bowel movements (SBMs) in comparison to placebo", "setting": "[1]; 100 mg dose", "result": "statistically significant increase"},
      {"measurement": "net increase of SBMs over placebo", "setting": "[1]; 100 mg once-daily", "result": 3.9, "unit": "SBMs"},
      {"measurement": "mean change from baseline in the average number of SBMs per week", "setting": "[1]; 100 mg once-daily, placebo 0.7, p=0.003", "result": 4.6, "unit": "SBMs per week"},
      {"measurement": "mean change from baseline in CSBMs per week", "setting": "[1]; 100 mg, placebo 0.8, p=0.006", "result": 3.6, "unit": "CSBMs per week"},
      {"measurement": "opioid use", "setting": "[1]; escalating doses 1-100 mg", "result": "no increase in opioid use"},
      {"measurement": "reversal of analgesia as measured by change in Numerical Pain Rating Scale (NPRS) scores", "setting": "[1]; escalating doses 1-100 mg", "result": "no reversal of analgesia"}
    ]}
  ]
}
